Results on two substances are retold here after article PMC9653453, “Development of truncated elastin-like peptide analogues with improved temperature-response and self-assembling properties” (Scientific Reports, 2022).

“Also recorded” adds a separate entry of the source. Ends that are not written are not given here.

A short description of series [1]: Colorimetric (xylenol orange) determination of Zn^2+ removal by peptide coacervation. Conditions: peptide 1.0 mg/mL, mean ± SE. On the procedure: Colorimetric analyses of cadmium ions (Cd^2+) were carried out to evaluate the number of metal ions absorbed into the coacervation phase of the peptides by using a spectral photometer (JASCO V-660)[45]. […] The peptide solutions were incubated at 4 ℃ for 3, 6, or 12 h and then at 60 ℃ for 1.5 h to separate into the lower coacervation phase from the upper equilibrium solution phase. After incubation, the peptide solution was immediately centrifuged at room temperature for 2 min (6,200 rpm) to remove aggregates. An aliquot of 333 µL of supernatant of the equilibrium solution phase was added to 600 µL of acetate buffer solution (pH5.4) including 67 μM of XO and incubated for 10 min. Subsequently, the concentrations of Cd^2+ or Zn^2+ were determined by measuring the absorbance at 575 nm or 550 nm, respectively, which corresponds to the absorbance of the metal-XO complex. The amount of metal ions absorbed in the peptide solution was determined by the calibration line, which was prepared in the same manner by using a series of standard CdCl2 or ZnCl2 aqueous solutions of known concentrations. […] The statistical significance of the difference between the concentration of each metal ion in the supernatant and the control solution was determined using the Student's t-test. […]

A short description of series [2]: Turbidity measurement of AADAAC-(FPGV)4 in Tris-HCl buffer pH 8.4 with or without CdCl2 / NaCl. In kind it is physicochemical. The settings on record: for Tt: turbidity at 400 nm, mean ± SE, at least three measurements. On the procedure: This hexapeptide sequence strongly and selectively binds to cadmium above pH 6.0, whereas this peptide releases metal ions below pH 4.0[51]. […] To assess the self-assembly property, turbidity measurements of AADAAC-(FPGV)4 were carried out under the same conditions as described above (Table 2 and Fig. 8). First, AADAAC-(FPGV)4 was dissolved to a concentration of 10 mg/mL in Tris–HCl buffer (pH 8.4) instead of phosphate buffer (pH 7.4), considering its use as a metal scavenging agent under basic conditions. Under these conditions, the Tt of AADAAC-(FPGV)4 was 41.6 ± 1.0 ℃ at a peptide concentration of 10 mg/mL. Since Tt tended to increase with the proportion of hydrophilic residues in the peptide, the self-assembling ability of AADAAC-(FPGV)4 was weakened compared with that of (FPGV)4, owing to the presence of hydrophilic Asp and Cys residues in the AADAAC sequence conjugated to (FPGV)4[34]. On the other hand, in the presence of Cd^2+, AADAAC-(FPGV)4 was insoluble in the solution. Therefore, the binding of the AADAAC sequence to Cd^2+ ions was thought to contribute to the enhanced self-assembly of AADAAC-(FPGV)4 in the presence of the metal ions. […] This characteristic of AADAAC-(FPGV)4 was similar to that of AADAAC-(FPGVG)4, which we previously reported. Subsequently, to verify whether this peptide can be used as a metal recovery agent at a lower peptide concentration, turbidity measurement using a low-concentration peptide solution (0.5 mg/mL, 0.236 mM) was performed. […] Thus, turbidity was measured in Tris–HCl buffer (50.0 mM Tris, 0.236 mM CdCl2, pH 8.4) containing 0.9% NaCl (154 mM, equivalent to saline), because it has been reported that salts such as NaCl increase the self-association and decrease the Tt of ELPs[52]. […] Owing to this drastic change in water solubility in the presence and absence of cadmium ions, AADAAC-(FPGV)4 was considered to be useful as a Cd^2+-selective metal-scavenging agent.
Turbidity measurements were performed in accordance with previous reports. The temperature-dependent self-assembling properties of the ELP analogues were evaluated using a JASCO V-660 spectral photometer (JASCO Co., Tokyo, Japan). Peptide sample solutions of different concentrations (2.0, 5.0, 10, 20, 30, or 50 mg/mL) were prepared by dissolving each peptide (except for AADAAC-(FPGV)n) in phosphate buffer (27.4 mM Na2HPO4, 17.8 mM NaH2PO4, pH 7.4). […] Turbidity was measured at 400 nm with increasing or decreasing temperature at a rate of 0.5 ℃/min from 5 ℃. The concentration of each sample solution was measured at least three times. […]

Series [3] in a line: RP-UPLC retention time, used as measure of peptide hydrophobicity. In kind it is physicochemical. The settings on record: RP-UPLC-MS; chromatographic. On the procedure:
Peptide synthesis was carried out using the conventional solid-phase peptide synthesis procedure (see supplementary information). The synthesized peptides were purified using RP-HPLC. The purity and molecular weight of each peptide were confirmed using RP-UPLC-MS (Table S1 and Fig. S1). […]
Retention times of each peptide were determined by RP-UPLC-MS.

Series [4] is described as follows: Colorimetric (xylenol orange) determination of Cd^2+ removal by peptide coacervation. The settings on record: peptide 1.0 mg/mL; for Concentration of metal ion in the supernatant: Cd^2+ (0.236 mM CdCl2), Tris-HCl (50.0 mM Tris, 599 mM NaCl, pH 8.0), at least three measurements; for Concentration of metal ion in the supernatant / Removal efficiency: mean ± SE; for Removal efficiency: Cd^2+, versus control without peptide. The procedure:
Colorimetric analyses of cadmium ions (Cd^2+) were carried out to evaluate the number of metal ions absorbed into the coacervation phase of the peptides by using a spectral photometer (JASCO V-660)[45]. […] The peptide solutions were incubated at 4 ℃ for 3, 6, or 12 h and then at 60 ℃ for 1.5 h to separate into the lower coacervation phase from the upper equilibrium solution phase. After incubation, the peptide solution was immediately centrifuged at room temperature for 2 min (6,200 rpm) to remove aggregates. An aliquot of 333 µL of supernatant of the equilibrium solution phase was added to 600 µL of acetate buffer solution (pH5.4) including 67 μM of XO and incubated for 10 min. Subsequently, the concentrations of Cd^2+ or Zn^2+ were determined by measuring the absorbance at 575 nm or 550 nm, respectively, which corresponds to the absorbance of the metal-XO complex. The amount of metal ions absorbed in the peptide solution was determined by the calibration line, which was prepared in the same manner by using a series of standard CdCl2 or ZnCl2 aqueous solutions of known concentrations. The homogeneity of variances between the concentration of each metal ion in the supernatant and the control solution was confirmed using the F test. The statistical significance of the difference between the concentration of each metal ion in the supernatant and the control solution was determined using the Student's t-test. Results were considered statistically significant at P values of ≤ 0.01.

A short description of series [5]: Dynamic light scattering (DLS) size distribution of coacervates. In kind it is physicochemical. Conditions: 10 to 50 ℃ in 10 ℃ steps; phosphate buffer pH 7.4; peptide concentrations as in Fig. 3 (2.0-50 mg/mL). The procedure: The distribution of the particle size in the truncated ELP analogue solution was analyzed via DLS using Zetasizernano ZS (Malvern Instruments Ltd., Worcestershire, U.K.) in a measurement cell ZEN0112 (Malvern Instruments Ltd.)[33]. Peptide samples of different concentrations (2.0, 10, 20, 30, or 50 mg/mL) were prepared by dissolving each peptide in phosphate buffer (27.4 mM Na2HPO4, 17.8 mM NaH2PO4, pH 7.4) and filtered using the Millex-LG filter (pore size 0.2 µm, Merck Millipore) before measurement. DLS analysis was performed by increasing the temperature at 10 ℃ intervals from 10 to 50 ℃. Measurement duration was selected automatically. Parameter dataset “protein” (dataset: refractive index, 1.450; absorption, 0.001) was used as the material parameter, and parameter dataset “water” (dataset: refractive index, 1.330; viscosity, 0.8872) was chosen as the dispersant parameter. Attenuation was selected automatically. Each concentration was measured at least three times.

Series [6] is described as follows: Optical microscopy of peptide aggregates with image analysis of particle size. In kind it is physicochemical. Conditions: peptide 10 mg/mL, phosphate buffer pH 7.4. The procedure:
The morphology of the coacervates of (FPGVG)4, (FPGV)4, and (FPG)4 was observed using optical microscopy. Light field observation was performed using a Leica DM IL LED microscope (Leica Microsystems CMS, Wetzlar, Germany) equipped with HI PLAN 40 × (Leica Microsystems CMS) and HC PLAN 10 × (Leica Microsystems CMS) objectives. Each peptide was dissolved in phosphate buffer (27.4 mM Na2HPO4, 17.8 mM NaH2PO4, at pH 7.4) to a concentration of 10 mg/mL and applied on a glass slide. Sample imaging was performed below and above the Tt of each peptide using a Thermo Plate TP-CHSQM (Tokai Hit Co., Ltd., Shizuoka, Japan). Sample images above Tt were taken 3 min after the sample reached the target temperature. The details of the image analysis is shown in the Supplementary Information file.
Size distribution of coacervates of ELP analogues formed above the Tt was analyzed using optical microscopy images of each peptide. Image analysis was performed using Image J/Fiji (NIH, USA), an open-source image analysis software.^2 Spatial calibration was carried out using […] in original images. The images of peptide coacervates were converted to a binary image via the menu command Image > Type > 8-bit. Using "analyze particle" command, the Feret diameters of the particles within the image were measured.

Series [7] can be described thus: Time-lapse thioflavin T (ThT) fluorescence assay. The settings on record: peptide 10 mg/mL; phosphate buffer pH 7.4; 15, 30 and 45 ℃; excitation 446 nm, emission 483 nm. In kind it is physicochemical. On the procedure: Thiofalvin T (ThT) fluorescence measurements were performed for (FPGVG)5, (FPGVG)4, (FPGV)5, and (FPGV)4. Each peptide was dissolved in phosphate buffer (27.4 mM Na2HPO4, 17.8 mM NaH2PO4, pH 7.4) to different concentrations (1.0 mg/mL for (FPGV)5, 5.0 mg/mL for (FPGVG)5 and (FPGV)4, and 10 mg/mL for (FPGVG)4, respectively). Then, 1 mM of ThT aqueous solution was added to each sample at a final ThT concentration of 25 μM) followed by incubation for 1 h at 4 °C. The fluorescence intensity was measured using a FP-8500 spectrofluorometer (JASCO Co.). The excitation was set at 446 nm and the emission was recorded at 483 nm. The fluorescence intensities of samples were monitored at 15 °C for 30 min. Then, the sample temperature was raised to 30 °C and the measurements were performed for another 30 min. The same measurement was also carried out at 45 °C for (FPGV)4.

A short description of series [8]: Turbidity measurement (phase transition temperature Tt, coacervation) in phosphate buffer pH 7.4. The class given is physicochemical. Conditions: turbidity at 400 nm, heating 0.5 ℃/min from 5 ℃, mean ± SE, at least three measurements. On the procedure: Turbidity measurements were performed in accordance with previous reports. The temperature-dependent self-assembling properties of the ELP analogues were evaluated using a JASCO V-660 spectral photometer (JASCO Co., Tokyo, Japan). Peptide sample solutions of different concentrations (2.0, 5.0, 10, 20, 30, or 50 mg/mL) were prepared by dissolving each peptide (except for AADAAC-(FPGV)n) in phosphate buffer (27.4 mM Na2HPO4, 17.8 mM NaH2PO4, pH 7.4). AADAAC-(FPGV)4 was dissolved in Tris–HCl buffer solution (50.0 mM Tris, at pH 8.4 or 50.0 mM Tris, 154 mM NaCl, at pH 8.4) to prepare sample solutions of a concentration of 0.5 or 10 mg/mL in the absence or presence of the equimolar amount of CdCl2. Turbidity was measured at 400 nm with increasing or decreasing temperature at a rate of 0.5 ℃/min from 5 ℃. The concentration of each sample solution was measured at least three times. The self-assembling property was described by the phase transition temperature (Tt), which is the temperature at which the turbidity of the solution reaches half the maximum value.

In the case of “AADAACFPGVFPGVFPGVFPGV-NH2 [AADAAC-(FPGV)4, H-AADAAC-(FPGV)4-NH2]”, the “Concentration of metal ion in the supernatant” value in series [1] (Zn^2+ (0.236 mM ZnCl2), incubation 12 h at 4 ℃ then 60 ℃ 1.5 h, Tris-HCl (50.0 mM Tris, 599 mM NaCl, pH 8.0), xylenol orange absorbance 550 nm, at least three measurements) amounted to 4.4 ± 0.008 ppm; in series [4] (incubation 3 h at 4 ℃ then 60 ℃ 1.5 h, xylenol orange absorbance 575 nm) it was 6.8 ± 0.11 ppm; in series [4] (incubation 6 h at 4 ℃ then 60 ℃ 1.5 h), 2.5 ± 0.49 ppm; in series [4] (incubation 12 h at 4 ℃ then 60 ℃ 1.5 h), 1.3 ± 0.046 ppm. Further, the Removal efficiency in series [1] (Zn^2+, incubation 12 h, versus control without peptide) stood at 75.3 ± 0.001%; in series [4] (incubation 6 h), 90.9 ± 0.018%; in series [4] (incubation 12 h), 95.1 ± 0.002%. Also, the Tt in series [2] (peptide 0.5 mg/mL (0.236 mM), Tris-HCl buffer (50.0 mM Tris, pH 8.4) with 154 mM NaCl and 0.236 mM CdCl2 (equimolar)) amounted to 13.8 ± 0.1 °C; in series [2] (peptide 10 mg/mL (4.71 mM), Tris-HCl buffer (50.0 mM Tris, pH 8.4), no additive, 0.5 ℃/min), 41.6 ± 1.0 °C. Also, the “Coacervation (in words)” value in series [2] (peptide 0.5 mg/mL (0.236 mM), Tris-HCl buffer (50.0 mM Tris, pH 8.4) with 154 mM NaCl, absence of Cd^2+) was “did not show coacervation”. In addition, in series [2] (peptide 10 mg/mL (4.71 mM), Tris-HCl buffer (50.0 mM Tris, pH 8.4) with 4.71 mM CdCl2), the “Tt / solubility in the presence of Cd^2+” value is listed as “insoluble; also recorded: Not dissolved”. Further, the “UPLC retention time (measure of hydrophobicity)” value in series [3] amounted to 2.496 min. Further, the “Cd^2+ concentration remaining in the supernatant” value in series [4] (incubation for 12 h at 4 ℃ before heating) is on record as 4.9%.
Turning to “FPGVGFPGVGFPGVGFPGVG-NH2 [(FPGVG)4, reference compound]”, the “Temperature-dependent particle size by DLS (in words)” value in series [5] is given as “formed sub-micron particles below Tt, which grew into micrometer-sized particles above Tt”. In addition, in series [6], the “Morphology of aggregates (optical microscopy, in words)” value was “spherical aggregates”. Besides, the “Particle size of coacervates (optical microscopy image analysis, Feret diameter)” value in series [6] (above Tt ((FPGVG)4 40 °C, (FPGV)4 25 °C), ImageJ/Fiji) is “about 1 µm”. For the same substance, the “UPLC retention time (measure of hydrophobicity)” value in series [3] was 2.251 min. Besides, in series [7], the “ThT fluorescent intensity versus temperature (in words)” value was “significantly elevated at 45 °C”. Also, the “Tt, phase transition temperature” value in series [8] (peptide 5.0 mg/mL, phosphate buffer pH 7.4, half-maximal turbidity) is 47.5 ± 0.3 °C; in series [8] (peptide 10 mg/mL, phosphate buffer (27.4 mM Na2HPO4, 17.8 mM NaH2PO4, pH 7.4), Tt = temperature at half-maximal turbidity) it was 33.8 ± 0.3 °C.
